From patent publication US11484539B2, “Compounds and their uses for alleviating menopause-associated symptoms” (Estetra SPRL, priority 2018, dated 2022)

Tested on: post-menopausal women
Assay: Hot Flush Weekly Weighted Score, dose-finding study
Format: in vivo
Settings: for Relative change in Hot Flush Weekly Weighted Score, LS adjusted mean: analysis with placebo grouped with 2.5 and 5 mg; for LS adjusted mean change from baseline in Hot Flush Weekly Weighted Score: 15 mg E4; for Covariate significance, covariate trt1, p_value, relative change in Hot Flush Weekly Weighted Score: 15 mg vs placebo grouped with 2.5 and 5 mg
Experimental: Further, the terms “Hot Flush Weekly Weighted Score”, as used herein, corresponds to a score taking into account frequency and severity which is calculated by using the severity score (as calculated above): [(1× No. of mild VMS)+(2× No. of moderate VMS)+(3× No. of severe VMS)] during a 7 day period.
Such a weighted score was for example used by Notelovitz et al. (“Initial 17β-Estradiol Dose for Treating Vasomotor Symptoms”; Obstetrics and Gynaecology, Vol. 95(5), May 2000, p. 726-731). This score was used to generate the data included in Example 1 further below, under section A. c) “Hot Flush Weekly Weighted Score”.

SMILES: C[C@]12CC[C@@H]3c4ccc(O)cc4CC[C@H]3[C@@H]1[C@@H](O)[C@@H](O)[C@@H]2O [E4, 1,3,5 (10)-estratrien-3,15alpha,16alpha,17beta-tetrol]
- Relative change (% from baseline) in Hot Flush Weekly Weighted Score, mean (10 mg E4 QD per os, week 9): −67%
- Mean change from baseline in Hot Flush Weekly Weighted Score (10 mg E4 QD per os, week 10): −109.514
- Relative change (% from baseline) in Hot Flush Weekly Weighted Score, mean (10 mg E4 QD per os, week 10): −68%
- Mean change from baseline in Hot Flush Weekly Weighted Score (10 mg E4 QD per os, week 11): −109.532
- Relative change (% from baseline) in Hot Flush Weekly Weighted Score, mean (10 mg E4 QD per os, week 11): −69%
- Mean change from baseline in Hot Flush Weekly Weighted Score (10 mg E4 QD per os, week 12): −111.764
- Relative change (% from baseline) in Hot Flush Weekly Weighted Score, mean (10 mg E4 QD per os, week 12): −70%
- Difference with placebo, LS adjusted mean, absolute change in Hot Flush Weekly Weighted Score (10 mg E4 vs placebo, week 4): −7.296
- Difference with placebo, LS adjusted mean, absolute change in Hot Flush Weekly Weighted Score (10 mg E4 vs placebo, week 12): −5.078
- Differences with placebo (including ineffective doses 2.5 mg and 5 mg), relative change in Hot Flush Weekly Weighted Score, LS adjusted mean (10.0 mg vs 0 mg, week 4): −0.06006
- Differences with placebo (including ineffective doses 2.5 mg and 5 mg), relative change in Hot Flush Weekly Weighted Score, p_value (10.0 mg vs 0 mg, week 4): 0.4167
- Differences with placebo, relative change in weekly weighted score, p_value (10.0 mg vs 0 mg, week 4): 0.6745
- Differences with placebo (including ineffective doses 2.5 mg and 5 mg), relative change in Hot Flush Weekly Weighted Score, LS adjusted mean (10.0 mg vs 0 mg, week 12): −0.08625
- Differences with placebo (including ineffective doses 2.5 mg and 5 mg), relative change in Hot Flush Weekly Weighted Score, p_value (10.0 mg vs 0 mg, week 12): 0.1404
- Differences with placebo, relative change in weekly weighted score, p_value (10.0 mg vs 0 mg, week 12): 0.7861
- Relative change (% from baseline) in Hot Flush Weekly Weighted Score, mean (10 mg, Week 12): −69%
- Relative change (% from baseline) in weekly weighted score, LS adjusted mean (10 mg, Week 12): −0.6994
- Relative change (% from baseline) in Hot Flush Weekly Weighted Score, mean (10 mg, week 0): 0%
- Relative change (% from baseline) in Hot Flush Weekly Weighted Score, mean (10 mg, week 1): −20%
- Relative change (% from baseline) in Hot Flush Weekly Weighted Score, mean (10 mg, week 2): −34%
- Relative change (% from baseline) in Hot Flush Weekly Weighted Score, mean (10 mg, week 3): −46%
- Relative change (% from baseline) in Hot Flush Weekly Weighted Score, mean (10 mg, week 4): −53%
- Relative change (% from baseline) in weekly weighted score, LS adjusted mean (10 mg, week 4): −0.5419
- Relative change in Hot Flush Weekly Weighted Score, LS adjusted mean (10 mg, week 4): −0.5137
- Relative change (% from baseline) in Hot Flush Weekly Weighted Score, mean (10 mg, week 5): −57%
- Relative change (% from baseline) in Hot Flush Weekly Weighted Score, mean (10 mg, week 6): −62%
- Relative change (% from baseline) in Hot Flush Weekly Weighted Score, mean (10 mg, week 7): −64%
- Relative change (% from baseline) in Hot Flush Weekly Weighted Score, mean (10 mg, week 8): −66%
- Relative change (% from baseline) in Hot Flush Weekly Weighted Score, mean (10 mg, week 9): −66%
- Relative change (% from baseline) in Hot Flush Weekly Weighted Score, mean (10 mg, week 10): −68%
- Relative change (% from baseline) in Hot Flush Weekly Weighted Score, mean (10 mg, week 11): −68%
- Relative change in Hot Flush Weekly Weighted Score, LS adjusted mean (10 mg, week 12): −0.6776
- LS adjusted mean change from baseline in Hot Flush Weekly Weighted Score (week 4): −106.3
- LS adjusted mean change from baseline in Hot Flush Weekly Weighted Score (week 12): −130.6
- Mean change from baseline in Hot Flush Weekly Weighted Score (15 mg E4 QD per os, week 0): 2.219
- Mean change from baseline in Hot Flush Weekly Weighted Score (15 mg E4 QD per os, week 1): −33.1745
- Relative change (% from baseline) in Hot Flush Weekly Weighted Score, mean (15 mg E4 QD per os, week 1): −19%
- Mean change from baseline in Hot Flush Weekly Weighted Score (15 mg E4 QD per os, week 2): −67.6983
- Relative change (% from baseline) in Hot Flush Weekly Weighted Score, mean (15 mg E4 QD per os, week 2): −43%
- Mean change from baseline in Hot Flush Weekly Weighted Score (15 mg E4 QD per os, week 3): −85.1915
- Relative change (% from baseline) in Hot Flush Weekly Weighted Score, mean (15 mg E4 QD per os, week 3): −56%
- Mean change from baseline in Hot Flush Weekly Weighted Score (15 mg E4 QD per os, week 4): −98.8329
- Relative change (% from baseline) in Hot Flush Weekly Weighted Score, mean (15 mg E4 QD per os, week 4): −66%
- Mean change from baseline in Hot Flush Weekly Weighted Score (15 mg E4 QD per os, week 5): −105.223
- Relative change (% from baseline) in Hot Flush Weekly Weighted Score, mean (15 mg E4 QD per os, week 5): −70%
- Mean change from baseline in Hot Flush Weekly Weighted Score (15 mg E4 QD per os, week 6): −110.268
- Relative change (% from baseline) in Hot Flush Weekly Weighted Score, mean (15 mg E4 QD per os, week 6): −74%
- Mean change from baseline in Hot Flush Weekly Weighted Score (15 mg E4 QD per os, week 7): −115.263
- Relative change (% from baseline) in Hot Flush Weekly Weighted Score, mean (15 mg E4 QD per os, week 7): −78%
- Mean change from baseline in Hot Flush Weekly Weighted Score (15 mg E4 QD per os, week 8): −115.656
- Relative change (% from baseline) in Hot Flush Weekly Weighted Score, mean (15 mg E4 QD per os, week 8): −78%
- Mean change from baseline in Hot Flush Weekly Weighted Score (15 mg E4 QD per os, week 9): −118.578
- Relative change (% from baseline) in Hot Flush Weekly Weighted Score, mean (15 mg E4 QD per os, week 9): −80%
- Mean change from baseline in Hot Flush Weekly Weighted Score (15 mg E4 QD per os, week 10): −116.853
- Relative change (% from baseline) in Hot Flush Weekly Weighted Score, mean (15 mg E4 QD per os, week 10): −79%
- Mean change from baseline in Hot Flush Weekly Weighted Score (15 mg E4 QD per os, week 11): −119.365
- Relative change (% from baseline) in Hot Flush Weekly Weighted Score, mean (15 mg E4 QD per os, week 11): −80%
- Mean change from baseline in Hot Flush Weekly Weighted Score (15 mg E4 QD per os, week 12): −121.777
- Relative change (% from baseline) in Hot Flush Weekly Weighted Score, mean (15 mg E4 QD per os, week 12): −82%
- Difference with placebo, LS adjusted mean, absolute change in Hot Flush Weekly Weighted Score (15 mg E4 vs placebo, week 4): −28.06
- Difference with placebo, LS adjusted mean, absolute change in Hot Flush Weekly Weighted Score (15 mg E4 vs placebo, week 12): −25.91
- Differences with placebo (including ineffective doses 2.5 mg and 5 mg), relative change in Hot Flush Weekly Weighted Score, LS adjusted mean (15.0 mg vs 0 mg, week 4): −0.1788
- Differences with placebo (including ineffective doses 2.5 mg and 5 mg), relative change in Hot Flush Weekly Weighted Score, p_value (15.0 mg vs 0 mg, week 4): 0.00178
- Differences with placebo, relative change in weekly weighted score, p_value (15.0 mg vs 0 mg, week 4): 0.0267
- Differences with placebo (including ineffective doses 2.5 mg and 5 mg), relative change in Hot Flush Weekly Weighted Score, LS adjusted mean (15.0 mg vs 0 mg, week 12): −0.177
- Differences with placebo (including ineffective doses 2.5 mg and 5 mg), relative change in Hot Flush Weekly Weighted Score, p_value (15.0 mg vs 0 mg, week 12): 0.00097
- Differences with placebo, relative change in weekly weighted score, p_value (15.0 mg vs 0 mg, week 12): 0.0276
- Relative change (% from baseline) in Hot Flush Weekly Weighted Score, mean (15 mg, Week 12): −81%
- Relative change (% from baseline) in weekly weighted score, LS adjusted mean (15 mg, Week 12): −0.8122
- Relative change (% from baseline) in Hot Flush Weekly Weighted Score, mean (15 mg, week 0): 0%
- Relative change (% from baseline) in Hot Flush Weekly Weighted Score, mean (15 mg, week 1): −22%
- Relative change (% from baseline) in Hot Flush Weekly Weighted Score, mean (15 mg, week 2): −45%
- Relative change (% from baseline) in Hot Flush Weekly Weighted Score, mean (15 mg, week 3): −56%
- Relative change (% from baseline) in Hot Flush Weekly Weighted Score, mean (15 mg, week 4): −66%
- Relative change (% from baseline) in weekly weighted score, LS adjusted mean (15 mg, week 4): −0.6503
- Relative change in Hot Flush Weekly Weighted Score, LS adjusted mean (15 mg, week 4): −0.6324
- Relative change (% from baseline) in Hot Flush Weekly Weighted Score, mean (15 mg, week 5): −70%
- Relative change (% from baseline) in Hot Flush Weekly Weighted Score, mean (15 mg, week 6): −72%
- Relative change (% from baseline) in Hot Flush Weekly Weighted Score, mean (15 mg, week 7): −75%
- Relative change (% from baseline) in Hot Flush Weekly Weighted Score, mean (15 mg, week 8): −76%
- Relative change (% from baseline) in Hot Flush Weekly Weighted Score, mean (15 mg, week 9): −78%
- Relative change (% from baseline) in Hot Flush Weekly Weighted Score, mean (15 mg, week 10): −77%
- Relative change (% from baseline) in Hot Flush Weekly Weighted Score, mean (15 mg, week 11): −79%
- Relative change in Hot Flush Weekly Weighted Score, LS adjusted mean (15 mg, week 12): −0.7683
- Covariate significance, covariate trt1, p_value, relative change in Hot Flush Weekly Weighted Score (week 4, 10 mg): 0.0037
- Covariate significance, covariate trt1, p_value, relative change in Hot Flush Weekly Weighted Score (week 12, 10 mg): 0.0015
